Measurements published in ChEMBL document CHEMBL4229418, “Design, synthesis and pharmacology of aortic-selective acyl-CoA: Cholesterol O-acyltransferase (ACAT/SOAT) inhibitors” (Bioorg Med Chem, 2018).
Values after ≈ are worked out from the molar mass of the structure shown.

Columns and labels:
[1] = Tmax in non-fasted Beagle dog at 30 mg/kg, po by LC-MS/MS analysis; assay type: ADME, organism-based, Canis lupus familiaris; conditions: in vivo
[2] = Solubility of the compound in pH 1.2 solution; assay type: physicochemical; conditions: buffer
[3] = Tmax in fasted Beagle dog at 30 mg/kg, po by LC-MS/MS analysis; assay type: ADME, organism-based, Canis lupus familiaris; conditions: in vivo
[4] = Cmax in non-fasted Beagle dog at 30 mg/kg, po by LC-MS/MS analysis; assay type: ADME, organism-based, Canis lupus familiaris; parameters: dose 30 mg/kg, route oral; conditions: in vivo
[5] = Cmax in fasted Beagle dog at 30 mg/kg, po by LC-MS/MS analysis; assay type: ADME, organism-based, Canis lupus familiaris; parameters: dose 30 mg/kg, route oral; conditions: in vivo
[6] = AUC (0 to 8 hrs) in non-fasted Beagle dog at 30 mg/kg, po by LC-MS/MS analysis; assay type: ADME, organism-based, Canis lupus familiaris; parameters: time < 8 hr, dose 30 mg/kg, route oral; conditions: in vivo
[7] = AUC (0 to 8 hrs) in fasted Beagle dog at 30 mg/kg, po by LC-MS/MS analysis; assay type: ADME, organism-based, Canis lupus familiaris; parameters: dose 30 mg/kg, time < 8 hr, route oral; conditions: in vivo
[8] = Tmax in non-fasted Sprague-Dawley rat at 30 mg/kg, po by LC-MS/MS analysis; assay type: ADME, organism-based; conditions: in vivo
[9] = Cmax in non-fasted Sprague-Dawley rat at 30 mg/kg, po by LC-MS/MS analysis; assay type: ADME, organism-based; parameters: dose 30 mg/kg, route oral; conditions: in vivo
[10] = AUC (0 to 8 hrs) in non-fasted Sprague-Dawley rat at 30 mg/kg, po by LC-MS/MS analysis; assay type: ADME, organism-based; parameters: dose 30 mg/kg, time < 8 hr, route oral; conditions: in vivo
[11] = test system: Hamster; test: Antiatherosclerotic activity in Bio F1B hamster model of diet-induced atherosclerosis assessed as reduction in lipid accumulation areas in aortic arch at 1 mg/kg/day added to chow pellets by oil red O staining based assay relative to control; assay type: functional; conditions: Cricetinae
[12] = test system: Canis familiaris; test: Toxicity in dog assessed as induction of necrosis in adrenal reticular zona cells at 100 mg/kg measured over 2 weeks; assay type: organism-based, Canis lupus familiaris; conditions: in vivo, 336 h
[13] = test system: Hamster; test: Toxicity in Bio F1B hamster model of diet-induced atherosclerosis assessed as plasma total cholesterol level at 1 mg/kg/day added to chow pellets (reference value: 2160.1 mg/dl); assay type: organism-based; conditions: cricetinae, in vivo
[14] = test system: Hamster; test: Toxicity in Bio F1B hamster model of diet-induced atherosclerosis assessed as plasma total cholesterol level at 10 mg/kg/day added to chow pellets (reference value: 2160.1 mg/dl); assay type: organism-based; conditions: cricetinae, in vivo
[15] = test system: Hamster; test: Toxicity in Bio F1B hamster model of diet-induced atherosclerosis assessed as plasma total cholesterol level at 30 mg/kg/day added to chow pellets (reference value: 2160.1 mg/dl); assay type: organism-based; conditions: cricetinae, in vivo
[16] = test system: Hamster; test: Effect on lipid composition in Bio F1B hamster model of diet-induced atherosclerosis assessed as intestine total cholesterol level at 1 mg/kg/day added to chow pellets (reference value: 4.51 mg/dl); assay type: functional, Cricetinae
[17] = test system: Hamster; test: Effect on lipid composition in Bio F1B hamster model of diet-induced atherosclerosis assessed as intestine total cholesterol level at 10 mg/kg/day added to chow pellets (reference value: 4.51 mg/dl); assay type: functional, Cricetinae
[18] = test system: Hamster; test: Effect on lipid composition in Bio F1B hamster model of diet-induced atherosclerosis assessed as intestine total cholesterol level at 30 mg/kg/day added to chow pellets (reference value: 4.51 mg/dl); assay type: functional, Cricetinae
[19] = test system: Hamster; test: Effect on lipid composition in Bio F1B hamster model of diet-induced atherosclerosis assessed as adrenal total cholesterol level at 3 mg/kg/day added to chow pellets (reference value: 10.54 mg/dl); assay type: functional, Cricetinae
[20] = test system: Hamster; test: Effect on lipid composition in Bio F1B hamster model of diet-induced atherosclerosis assessed as adrenal total cholesterol level at 10 mg/kg/day added to chow pellets (reference value: 10.54 mg/dl); assay type: functional, Cricetinae
[21] = test system: Hamster; test: Effect on lipid composition in Bio F1B hamster model of diet-induced atherosclerosis assessed as adrenal total cholesterol level at 30 mg/kg/day added to chow pellets (reference value: 10.54 mg/dl); assay type: functional, Cricetinae
[22] = test system: Hamster; test: Antiatherosclerotic activity in Bio F1B hamster model of diet-induced atherosclerosis assessed as plasma free cholesterol level at 1 mg/kg/day added to chow pellets (reference value: 780.8 mg/dl); assay type: functional, Cricetinae
[23] = test system: Hamster; test: Antiatherosclerotic activity in Bio F1B hamster model of diet-induced atherosclerosis assessed as plasma free cholesterol level at 3 mg/kg/day added to chow pellets (reference value: 780.8 mg/dl); assay type: functional, Cricetinae
[24] = test system: Hamster; test: Antiatherosclerotic activity in Bio F1B hamster model of diet-induced atherosclerosis assessed as plasma free cholesterol level at 10 mg/kg/day added to chow pellets (reference value: 780.8 mg/dl); assay type: functional, Cricetinae
[25] = test system: Hamster; test: Antiatherosclerotic activity in Bio F1B hamster model of diet-induced atherosclerosis assessed as liver free cholesterol level at 1 mg/kg/day added to chow pellets (reference value: 7.94 mg/dl); assay type: functional, Cricetinae
[26] = test system: Hamster; test: Antiatherosclerotic activity in Bio F1B hamster model of diet-induced atherosclerosis assessed as liver free cholesterol level at 30 mg/kg/day added to chow pellets (reference value: 7.94 mg/dl); assay type: functional, Cricetinae
[27] = test system: Hamster; test: Antiatherosclerotic activity in Bio F1B hamster model of diet-induced atherosclerosis assessed as intestinal free cholesterol level at 1 mg/kg/day added to chow pellets (reference value: 3.41 mg/dl); assay type: functional, Cricetinae
[28] = test system: Hamster; test: Antiatherosclerotic activity in Bio F1B hamster model of diet-induced atherosclerosis assessed as intestinal free cholesterol level at 10 mg/kg/day added to chow pellets (reference value: 3.41 mg/dl); assay type: functional, Cricetinae
[29] = test system: Hamster; test: Antiatherosclerotic activity in Bio F1B hamster model of diet-induced atherosclerosis assessed as intestinal free cholesterol level at 30 mg/kg/day added to chow pellets (reference value: 3.41 mg/dl); assay type: functional, Cricetinae
[30] = test system: Hamster; test: Toxicity in Bio F1B hamster model of diet-induced atherosclerosis assessed as adrenal free cholesterol level at 1 mg/kg/day added to chow pellets (reference value: 4.65 mg/dl); assay type: organism-based; conditions: cricetinae, in vivo
[31] = test system: Hamster; test: Toxicity in Bio F1B hamster model of diet-induced atherosclerosis assessed as adrenal free cholesterol level at 30 mg/kg/day added to chow pellets (reference value: 4.65 mg/dl); assay type: organism-based; conditions: cricetinae, in vivo
[32] = test system: Hamster; test: Antiatherosclerotic activity in Bio F1B hamster model of diet-induced atherosclerosis assessed as plasma cholesterol ester level at 1 mg/kg/day added to chow pellets (reference value: 1379.3 mg/dl); assay type: functional, Cricetinae
[33] = test system: Hamster; test: Antiatherosclerotic activity in Bio F1B hamster model of diet-induced atherosclerosis assessed as plasma cholesterol ester level at 10 mg/kg/day added to chow pellets (reference value: 1379.3 mg/dl); assay type: functional, Cricetinae
[34] = test system: Hamster; test: Antiatherosclerotic activity in Bio F1B hamster model of diet-induced atherosclerosis assessed as liver cholesterol ester level at 1 mg/kg/day added to chow pellets (reference value: 24.04 mg/dl); assay type: functional, Cricetinae
[35] = test system: Hamster; test: Antiatherosclerotic activity in Bio F1B hamster model of diet-induced atherosclerosis assessed as liver cholesterol ester level at 30 mg/kg/day added to chow pellets (reference value: 24.04 mg/dl); assay type: functional, Cricetinae
[36] = test system: Hamster; test: Antiatherosclerotic activity in Bio F1B hamster model of diet-induced atherosclerosis assessed as intestinal cholesterol ester level at 10 mg/kg/day added to chow pellets (reference value: 1.09 mg/dl); assay type: functional, Cricetinae
[37] = test system: Hamster; test: Antiatherosclerotic activity in Bio F1B hamster model of diet-induced atherosclerosis assessed as adrenal cholesterol ester level at 3 mg/kg/day added to chow pellets (reference value: 5.88 mg/dl); assay type: functional, Cricetinae

Q: What does the source list for `CC(C)c1cccc(C(C)C)c1NC(=O)CCCCCCCCSc1nc2ccccc2o1`?
A: Tmax [1]: 3 h; solubility [2]: 0.03 µg/mL (≈ 0.0643 µM); Tmax [3]: 1 h; Cmax [4]: 582 ng/mL; Cmax [5]: 5 ng/mL; AUC(0-t) at 8 h [6]: 2960 ng·h/mL; AUC(0-t) at 8 h [7]: 14 ng·h/mL; Tmax [8]: 3.2 h; Cmax [9]: 107 ng/mL; AUC(0-t) at 8 h [10]: 358 ng·h/mL; inhibition in vivo at 1 mg/kg/day [11]: 74%; Activity [12]: Toxic; Activity [13]: 2340.8 mg/dL; Activity [14]: 1291.7 mg/dL; Activity [15]: 476.3 mg/dL; Activity [16]: 4.4 mg/dL; Activity [17]: 4.07 mg/dL; Activity [18]: 4.81 mg/dL; Activity [19]: 10.07 mg/dL; Activity [20]: 7 mg/dL; Activity [21]: 3.47 mg/dL; Activity [22]: 828.2 mg/dL; Activity [23]: 801.5 mg/dL; Activity [24]: 491.9 mg/dL; Activity [25]: 7.94 mg/dL; Activity [26]: 2.43 mg/dL; Activity [27]: 3.43 mg/dL; Activity [28]: 3.82 mg/dL; Activity [29]: 4.62 mg/dL; Activity [30]: 4.41 mg/dL; Activity [31]: 2.4 mg/dL; Activity [32]: 1512.6 mg/dL; Activity [33]: 799.7 mg/dL; Activity [34]: 22.81 mg/dL; Activity [35]: 0.69 mg/dL; Activity [36]: 0.31 mg/dL; Activity [37]: 6.02 mg/dL
